# Reference: US20100209436A1, “METHOD FOR TREATING DISEASES RELATED TO MITOCHONDRIAL DYSFUNCTION” (priority 2007, published 2010)
# Entries after “also recorded” stand apart in the source; their conditions may differ.
# What was measured:
# Format in all cases: cell-based, human
# [1] = test system: OPA1 processing in HeLa cells; assay: Protease inhibitors on uncoupler-induced conversion of larger OPA1 isoforms to smaller isoforms; details: HeLa cells preincubated 10 min with inhibitor, then CCCP 25 min
# Method: a, The protease inhibitor o-phenanthroline (o-Phe) and partially DCI (3,4-Dichloroisocoumarin), but not phenylmethylsulphonylfluoride (PMSF) block uncoupler induced conversion of larger OPA1 isoforms to smaller isoforms. HeLa cells were preincubated for 10 min with or without the protease inhibitors at the indicated concentration before CCCP (20 μM) was added. Cells were further incubated for 25 min before they were harvested, lysed in loading buffer, loaded on a SDS-PAGE, and immunoblotted with OPA1 antibodies.
# HeLa cells [2] = assay: Uncoupler experiments: mitochondrial morphology and cytochrome c by confocal fluorescence microscopy
# Method: b, Quantification of mitochondrial morphology in cells: Tubular, at least one mitochondrial tubule of 5 μm or more; intermediate, at least one between 0.5 and 5 μm but none more than 5 μm; fragmented, none of more than 0.5 μm in length. Error bars represent standard deviation of five slides evaluated.
# (§1) a, HeLa cells and human fibroblasts were treated with CCCP (20 μM) for 6 h and total cell extracts were subjected to western blotting with OPA1 antibodies. b-d, Cells were treated or not (Control) with CCCP (20 μM) for 30 min, washed, and incubated further with medium lacking CCCP for the indicated time periods or CCCP (20 μM) was left for 6 h. In parallel, these experiments were performed in the presence of cycloheximide (CHX; 175 μg/ml). Cells were stained with MitoTracker (red) and with cytochrome c antibodies (green).
# (§2) Live cells were fluorescently labeled with MitoTracker® Red CMXRos (Molecular probes, USA) for mitochondria or with 4′,6-diamidino-2-phenylindole dihydrochloride (DAPI; Molecular probes, USA) for the nucleus, subsequently fixed, and permeabilised. Immunostaining was carried out with mouse anti-cytochrome c monoclonal antibody (clone 6H2.B4; BD Biosciences) and chicken anti-GFP antibody (Ayes Lab Inc., USA). The following secondary antibodies conjugated to fluorescent dyes were used: Alexa Fluor® 488 anti-mouse IgG (H+L) (Molecular probes, USA), Cy3-conjugated anti-mouse IgG and Fluorescein (FITC)-conjugated anti-chicken IgG (Jackson Immunoresearch, USA). Cells were mounted with Prolong® Gold antifade reagent (Molecular probes, USA). All treatments were done according to the manufacturers' instructions. Mitochondrial morphology was analysed by confocal microscopy using a Zeiss LSM 510 (Carl Zeiss Microscopy, Jena, Germany) equipped with a 63× objective. For all imaging, 512×512 pixel images of single confocal planes were acquired and processed with the Bitplane Imaris 4 software. This technique was particularly employed for FIGS. 5 to 7 and 9 and the corresponding examples.
# HeLa cells [3] = assay: Staurosporine-induced apoptosis: mitochondrial fragmentation, cytochrome c release, OPA1 isoforms; details: 1 μM staurosporine
# Method: HeLa cells were treated with 1 μM staurosporine for the indicated time periods, stained with MitoTracker (red) and with cytochrome c antibodies (green).
# b, Cells were classified. Tubular, at least one mitochondrial tubule of 5 μm or more; intermediate, at least one between 0.5 and 5 μm but none more than 5 μm; fragmented, none of more than 0.5 μm in length. A representative experiment out of three is shown.
# c, Cells were classified for cytochrome c release by immunostaining. Not released, completely colocalised with MitoTracker; intermediate, partly co-localised with MitoTracker; and released, not co-localised with MitoTracker.
# d, OPA1 protein isoforms were determined by western blot analysis of total cell extracts. Total cell extracts (C) and isolated mitochondria (M) from untreated HeLa cells were used as controls.
# as §2
# [4] = test system: OPA1 isoforms in HeLa cells; assay: Pulse-chase experiment of OPA1 isoforms; details: 20 μM CCCP for 1 hour during chase
# Method: HeLa cells were subjected to radioactive labeling of newly synthesized proteins. After labeling cells were washed, incubated for the indicated time in the absence of radiolabeled amino acids (chase) either in the presence or the absence of CCCP (20 μM). Cells were lysed at indicated times of chase and subjected to immunoprecipitation with antibodies raised against OPA1. Elution fractions were analyzed by digital autoradiography (top panel) and the same membrane was subjected to western blot analysis using OPA1 antibodies (bottom panel). The different OPA1 isoforms are indicated by arrows and named L1-, L2-, S3-, S4- and S5-OPA1.
# The large OPA1 isoforms l-OPA1#1 and l-OPA1#2 are converted to the small OPA1 isoforms s-OPA1#3, s-OPA1#4 and/or s-OPA1#5. […] Then cells were washed 3 times with PBS and 1 ml fresh DMEM medium +10% FCS without radioactive methione (chase) was added. Cells were either treated with 20 μM CCCP for 1 hour or not. OPA1 was immunoprecipitated using an antibody raised against the C-terminus of OPA1 and OPA1 was detected by autoradiography and by western-blotting after SDS-PAGE. […] Accordingly, it can be concluded that l-OPA1 isoforms are actually converted to s-OPA1 isofoms, in particular towards s-OPA1#5.
# [5] = test system: OPA1 isoforms in HeLa cells or fibroblasts; assay: Uncoupler experiments: OPA1 isoform pattern by western blot; details: CCCP 20 μM 6 h
# Method: as §1
# d, OPA1 isoforms by western blot analysis. Extracts of untreated cells (C) and of cells treated for 6 h with CHX alone (+CHX 6 h) were used as controls.
# It was further observed whether dissipation of the membrane potential is sufficient to trigger changes in abundance of OPA1 isoforms and fragmentation of mitochondria. […] Proteolytic processing occurs within mitochondria as shown by cellular fractionation experiments (FIG. 10c). This is specific for OPA1 since degradation of other mitochondrial proteins is not observed (FIG. 10c). Fragmentation of mitochondria occurred rapidly within 15 to 30 min after addition of CCCP (FIG. 9bc). Processing of OPA1 took place within the same narrow time frame (FIG. 9d). Impairment of fusion of mitochondria may therefore be due to rapid inactivation of OPA1 by proteolysis of large isoforms. […]
# [6] = test system: OPA1 isoforms in HeLa cells; assay: Ratios of OPA1 isoforms by western blot densitometry, uncoupler experiment
# Method: as §1
# Cell pellets were lysed in Lämmli-buffer 1× and heated for 5 min at 95° C. Samples equivalent to ˜10^6 cells were loaded on a 10% acrylamid gel (12 cm high×16 cm wide plates separated by 1.5 mm thick spacers). Gels were run for 3.5 hours at constant 30 mA or until the 37 kD band of the BioRad Precision Plus Protein standard reaches the bottom of the gel. The proteins were transferred to a nitrocellulose membrane by semi-dry blotting for 1.5 hours at 200 mA using Tris/glycine buffer. The membrane was incubated in TBS buffer containing 5% non fat milk powder for 30 min. The membrane was then incubated in TBS buffer containing 5% non fat milk powder and affinity purified rabbit OPA1 antibodies (raised against the C-terminal peptide of OPA1: […] (SEQ ID No: 30)) diluted 1:500 for 1 hour. After three rapid washes to remove the primary antibody in excess, the membrane was further incubated for 1 hour in TBS containing 5% non fat milk powder and secondary antibodies anti rabbit conjugated to HRP (horseradish peroxidase) diluted 1:10,000 (BioRad). The membrane was then washed in TBS, once rapidly, and four more times for 5 min each. ECL reagent (enhanced chemoluminescence reagent) was used to reveal the different OPA1 isoform bands on the membrane. Expositions of 1 to 2 min were usually sufficient to detect all OPA1 forms. The compositions of the buffers and gels to be employed are as follows.
# From the results of the below described uncoupler experiments using HeLa cells (Example 9; FIG. 9a), the ratio of the relative amount of various OPA1 isoforms was determined. For this purpose, total protein extracts were separated by SDS-PAGE and immunoblotted using an antibody raised against the C-terminus of OPA1. The western blot was scanned and densitometrically analysed using standard imaging software. The intensity of each band was determined and the background intensity was subtracted.
# [7] = HeLa +CCCP (20 μM, 6 h), densitometry of western blot
smiles,measurement,setting,value
c1cnc2c(c1)ccc1cccnc12 [o-phenanthroline],block of uncoupler (CCCP 20 μM) induced proteolytic processing of OPA1,[1],block; also recorded: (at least partially) blocked
same,block of uncoupler (CCCP 20 μM) induced proteolytic processing of OPA1,[1]; listed as ortho-phenanthroline,inhibited
"O=S(=O)(F)Cc1ccccc1 [PMSF, phenylmethylsulphonylfluoride]",block of uncoupler (CCCP 20 μM) induced proteolytic processing of OPA1,[1],not
C[C@@H]1C[C@@H]([C@H](O)CC2CC(=O)NC(=O)C2)C(=O)[C@@H](C)C1 [cycloheximide],recovery of tubular mitochondrial network and reappearance of large OPA1 isoforms after CCCP removal,HeLa cells [2]; CHX 175 μg/ml,impaired
same,effect on uncoupler-induced fragmentation and OPA1 processing,HeLa cells [2]; CHX 175 μg/ml with CCCP 20 μM,did not interfere
"O=c1oc(Cl)c(Cl)c2ccccc12 [DCI, 3,4-Dichloroisocoumarin]",block of uncoupler (CCCP 20 μM) induced proteolytic processing of OPA1,[1],(at least partially) blocked
CN[C@@H]1C[C@H]2O[C@@](C)([C@@H]1OC)n1c3ccccc3c3c4c(c5c6ccccc6n2c5c31)C(=O)NC4 [staurosporine],time to fragmentation of mitochondria,HeLa cells [3],2 to 3 h
same,cells that released cytochrome c,HeLa cells [3]; only after 5-6 h,more than 50%
same,change of OPA1 isoforms,HeLa cells [3]; western blot,disappearance of the two largest OPA1 isoforms
"N#CC(C#N)=NNc1cccc(Cl)c1 [CCCP, carbonyl cyanide 3-chlorophenylhydrazone]",time to fragmentation of mitochondria after addition,HeLa cells [2]; CCCP 20 μM,15 to 30 min
same,mitochondrial morphology upon removal of the uncoupler,"HeLa cells [2]; CCCP 20 μM 30 min, then washed",normal mitochondrial morphology was recovered
same,cytochrome c release,HeLa cells [2]; CCCP treatment,not accompanied by cytochrome c release
same,change of OPA1 isoforms in pulse-chase (autoradiography and western blot),[4],shift from the large isoforms to the short isoforms
same,change of OPA1 isoform pattern,[5],dramatic shift of OPA1 isoforms towards the smaller isoforms
same,OPA1#3 + #4 + #5/ all bands %,[6]; [7],93.0%
same,OPA1#3 + #5/ all bands %,[6]; [7],64.8%
same,OPA1#3/ all bands %,[6]; [7],19.2%
same,OPA1#4/ all bands %,[6]; [7],28.2%
same,OPA1#5/ all bands %,[6]; [7],45.6%
same,fold increase of OPA1#3 + #4 + #5/ all bands,[6]; HeLa +CCCP versus HeLa −CCCP,2.0 fold
same,fold increase of OPA1#3 + #5/ all bands,[6]; HeLa +CCCP versus HeLa −CCCP,3.2 fold
same,fold increase of OPA1#3/ all bands,[6]; HeLa +CCCP versus HeLa −CCCP,1.9 fold
same,fold increase of OPA1#4/ all bands,[6]; HeLa +CCCP versus HeLa −CCCP,1.0 fold
same,fold increase of OPA1#5/ all bands,[6]; HeLa +CCCP versus HeLa −CCCP,4.4 fold
